Results from patent publication US7247734B2 (Vernalis (Cambridge) Limited, priority 2001, dated 2007).

System: HSP70 and client protein (CDK4) expression in HT29 cells
Test: Western blotting of HSP70 and CDK4 in HT29 cells
Type: cell-based, human
Settings: 24 hours, various concentrations
Description: The cellular effects of HSP90 inhibitors can be measured using a number of molecular markers. As already mentioned, HSP90 inhibition leads to the depletion of several important cellular signalling proteins. […] Depletion is normally observed by 6 h, with maximum depletion occurring at 24 h. As well as RAF-1, depletion of several other HSP90 client proteins can be measured by immunoblotting e.g., CDK4, ERBB2. However, it is important to note that some of these proteins are cell line specific e.g., ERBB2 is expressed mainly in breast, thyroid, kidney and some ovarian tumour cell lines. Another very important marker of HSP90 inhibition is heat shock protein 70 (HSP70). A HSF-1 (heatshock factor 1) dependent increase in HSP70 levels has been reported by us and other groups (see, e.g., Whitesell et al., 1994; Clarke et al., 2000) and this effect can serve as a positive indicator of HSP90 inhibitor action. The immunoblotting method described is based on standard techniques but is described in detail for ease of reference.
Prepare as required and store at −20° C. • (4) Bicinchoninic acid (BCA) protein assay reagents (PerBio Science UK, Ltd., Chester, UK). • (5) Casein blocking buffer (0.5% casein, 0.02% thimerosal, in PBS). Store at 4° C. for up to 2 weeks. • (6) Wash buffer (phosphate buffered saline, PBS) containing 0.05% Tween 20). • (7) Tris-glycine gradient polyacrylamide precast gels (4–20%) (1 mm thick) (Novex, InVitrogen, Groningen, NL). • (8) Nitro-cellulose membrane (0.2 μm pore size) (InVitrogen, Groningen, NL). • (9) Ponceau Red stain (2% w/v in 30% TCA/30% […], Sigma Aldrich Ltd., Pool, UK). • (10) Enhanced chemiluminescence (SuperSignal) reagents (PerBio Science UK, Ltd., Chester, UK). • (11) Photographic film (Hyperfilm ECL, Amersham Pharmacia Biotech, Little Chalfont, Bucks, UK). Method
The following protocol was used: • (1) Lyse cells (approx 4×10^6) in 100 μl lysis buffer for 30 minutes on ice. When adding the lysis buffer, shear cells by pipetting up and down using a Gilson P200 pipette. • (2) Spin lysates for 10 min at 13,000 rpm at 4° C., retrieve supernatant and store at −70° C. • (3) Determine protein concentration using BCA protein assay reagents. • (4) Load samples of cell lysates (50 μg protein/lane) onto gel and separate proteins by SDS-polyacrylamide gel electrophoresis (SDS-PAGE) using a 4–20% Tris-glycine gel. • (5) Transfer proteins to nitrocellulose membrane using optimum conditions for the equipment available. For example, 150 mA for 2 h using the Mighty Small transfer system (Hoeffer TE22 Mini Tank Transphor Unit, Amersham Pharmacia Biotech, Little Chalfont, Bucks, UK). […]
Comments • (1) The protein bands are normally evaluated visually. […]

CCc1cc(-c2n[nH]c(C)c2-c2ccc3c(c2)OCCO3)c(O)cc1O [CCT018159, 4-[4-(2,3-Dihydro-benzo[1,4]dioxin-6-yl)-5-methyl-1H-pyrazol-3-yl]-6-ethyl-benzene-1,3-diol]
CDK4 client protein expression (immunoblot): depleted | HSP70 expression (immunoblot): elevated HSP70 expression
